Values quoted from earlier work, collected in patent US20050129759A1, “Sustained release compositions and controlled delivery method” (priority 2003, published 2005).

Conditions: not entrapped; stated as typical behaviour

NC(N)=O.OO [urea peroxide]
stability of free active agent: very unstable, shock sensitive, and deteriorates very quickly on contact with air humidity
